Experiments:
Details in all cases: saturating DL-infraluciferin (DL-iLH2) as co-substrate
Eluc = tested on: T1, Eluc; assay: bioluminescence, ATP […] to […], Hanes-Woolf plot; format: biochemical, Pyrearinus termitilluminans
T1 construct: 10X N-terminal His tag, pET16b, E. coli BL21(DE3) pLysS, Ni-NTA purified; amplified from plasmid pLR6-Eluc

[1] = molecular target: WT Fluc (Photinus pyralis firefly luciferase, Ppy Fluc) (Photinus pyralis, UniProt P08659)
[2] = molecular target: WT Fluc (Photinus pyralis firefly luciferase, Ppy Fluc) (Photinus pyralis, UniProt P08659, E354R/D357Y)
Chain of WT Fluc (Photinus pyralis firefly luciferase, Ppy Fluc) (Photinus pyralis, UniProt P08659, E354R/D357Y) (P08659 whole entry E354R/D357Y): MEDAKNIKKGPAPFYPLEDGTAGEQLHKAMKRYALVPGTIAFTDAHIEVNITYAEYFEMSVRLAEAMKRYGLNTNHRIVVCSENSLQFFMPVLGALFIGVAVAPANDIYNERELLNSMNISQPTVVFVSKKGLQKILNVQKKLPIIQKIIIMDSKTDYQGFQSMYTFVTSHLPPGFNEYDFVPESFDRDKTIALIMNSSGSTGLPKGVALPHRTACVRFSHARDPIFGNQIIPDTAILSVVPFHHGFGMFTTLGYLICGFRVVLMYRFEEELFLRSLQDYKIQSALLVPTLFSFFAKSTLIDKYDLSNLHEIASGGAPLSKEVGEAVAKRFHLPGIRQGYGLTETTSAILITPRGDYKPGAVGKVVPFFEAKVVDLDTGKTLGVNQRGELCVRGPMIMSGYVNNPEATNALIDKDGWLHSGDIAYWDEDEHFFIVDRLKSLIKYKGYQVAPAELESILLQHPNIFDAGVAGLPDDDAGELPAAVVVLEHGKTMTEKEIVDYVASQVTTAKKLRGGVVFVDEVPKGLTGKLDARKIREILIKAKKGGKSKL

Chain of WT Fluc (Photinus pyralis firefly luciferase, Ppy Fluc) (Photinus pyralis, UniProt P08659) (P08659 whole entry): as the sequence (P08659 whole entry E354R/D357Y) above, with R354E, Y357D counted along it

Nc1ncnc2c1ncn2[C@@H]1O[C@H](COP(=O)(O)OP(=O)(O)OP(=O)(O)O)[C@@H](O)[C@H]1O [ATP]
Km (Eluc): 200 µM
Km [1]: 160 µM
Km [2]: Kms for ATP in the presence of DL-iLH2 (ATP(iLH2))

Reference: PMC9459109, “A higher spectral range of beetle bioluminescence with infraluciferin” (Frontiers in Bioengineering and Biotechnology, 2022)
